Drawing on PubChem BioAssay (NCI), this text covers TGI and GI50 for 13 molecules.

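Five compound concentrations were applied to cells in 96-well plates for 48 hours; endpoints were derived by simple linear interpolation of the resulting dose-response curve. Here, GI50 denotes the concentration required for 50% inhibition of growth. TGI: concentration producing complete growth inhibition.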

Some test systems named below: COLO 205 colon; IGROV1 ovarian; MOLT-4 leukemia; NCI-H522 lung; RXF 393 renal; SF-295 CNS; SK-MEL-28 melanoma; SNB-75 CNS; UACC-257 melanoma; UACC-62 melanoma.
Common to all, as to test: growth of human tumour cells (NCI), 48 h

For the molecule `COC(=O)C1CCC(=S)N1C(=O)c1ccccc1` (stereo not given), the TGI was above 100 µM with COLO 205 colon; above 100 µM in the assay on IGROV1 ovarian; 90.3 µM in the assay on MOLT-4 leukemia; above 100 µM with NCI-H522 lung; above 100 µM in the assay on RXF 393 renal; above 100 µM in the assay on SF-295 CNS. Also, the TGI in the assay on SK-MEL-28 melanoma, in the assay with SNB-75 CNS, in the assay on UACC-257 melanoma and in the assay with UACC-62 melanoma was above 100 µM in each case.

Regarding `OCC(O)C(O)C(O)C(O)c1nc2ccc(Cl)cc2[nH]1` (stereo not given), the TGI with COLO 205 colon, with IGROV1 ovarian, in the assay on MOLT-4 leukemia, in the assay with NCI-H522 lung, in the assay on RXF 393 renal and in the assay with SF-295 CNS was above 100 µM in each case. Besides, the TGI with SK-MEL-28 melanoma, in the assay with SNB-75 CNS, with UACC-257 melanoma and in the assay on UACC-62 melanoma was above 100 µM each time.

`O=S(=O)(c1ccc(NC2=NC(c3ccc(O)cc3)(c3ccccc3O)c3ccccc32)cc1)c1ccc(NC2=NC(c3ccc(O)cc3)(c3ccccc3O)c3ccccc32)cc1` (stereo not given): the TGI in the assay with COLO 205 colon is above 33.6 µM; in the assay on IGROV1 ovarian it was 22.2 µM; in the assay with MOLT-4 leukemia, 60.1 µM; in the assay with NCI-H522 lung, 4.76 µM; in the assay with RXF 393 renal it was above 100 µM; in the assay with SF-295 CNS it was above 53.2 µM. Moreover, the TGI was above 28 µM in the assay on SK-MEL-28 melanoma, above 27.5 µM with SNB-75 CNS, above 47.9 µM with UACC-257 melanoma and above 100 µM in the assay on UACC-62 melanoma.

As for `Cc1ccc(OCC2OC(n3cnc4c(Cl)nc(N)nc43)CC2Oc2ccc(C)cc2)cc1` (stereo not given), the TGI in the assay on COLO 205 colon was 98.2 µM; in the assay with IGROV1 ovarian, 61.5 µM; with MOLT-4 leukemia it was above 100 µM; in the assay with NCI-H522 lung it was 12.1 µM; in the assay on RXF 393 renal, above 100 µM; in the assay on SF-295 CNS, above 100 µM. Besides, the TGI in the assay with SK-MEL-28 melanoma, in the assay on SNB-75 CNS, in the assay on UACC-257 melanoma and in the assay with UACC-62 melanoma was above 100 µM in each case.

As to `Cc1cc(F)ccc1S(=O)(=O)Nc1cc(-c2c(O)ccc3ccccc23)c(O)c2ccccc12`, the GI50 in the assay with COLO 205 colon was 2.08 µM; with IGROV1 ovarian, 2.89 µM; in the assay on MOLT-4 leukemia, 3.33 µM; with NCI-H522 lung it was 1.77 µM; in the assay on RXF 393 renal, 2.53 µM; in the assay with SF-295 CNS, 3.02 µM. The GI50 was 3.12 µM in the assay with SK-MEL-28 melanoma, 2.32 µM with SNB-75 CNS, 2.6 µM in the assay with UACC-257 melanoma and 1.85 µM with UACC-62 melanoma. Also, the TGI in the assay on COLO 205 colon amounted to 4.94 µM; with IGROV1 ovarian, 8.68 µM; with MOLT-4 leukemia, 14 µM; with NCI-H522 lung, 4.77 µM; with RXF 393 renal it was 9.11 µM; with SF-295 CNS, 10.3 µM. The TGI was found to be 9.74 µM in the assay on SK-MEL-28 melanoma, 11.7 µM with SNB-75 CNS, 9.33 µM in the assay with UACC-257 melanoma and 4.54 µM in the assay with UACC-62 melanoma.

For `COc1c(O)c(C=O)c2c(O)c(-c3c(C)cc4c(C(C)C)c(OC)c(O)c(C=O)c4c3O)c(C)cc2c1C(C)C`, the TGI in the assay on COLO 205 colon amounted to 4 µM; with IGROV1 ovarian it was 18.5 µM; with MOLT-4 leukemia, 27.9 µM; with NCI-H522 lung, 6.56 µM; in the assay on RXF 393 renal, 5.75 µM; in the assay with SF-295 CNS, 17 µM. For the same molecule, the TGI came out at 22.7 µM with SK-MEL-28 melanoma, 9.38 µM with SNB-75 CNS, 29 µM with UACC-257 melanoma and 29 µM in the assay on UACC-62 melanoma.

In the case of `Cc1cccc(Nc2nn3c(=O)c4c5c(sc4nc3s2)CCCC5)c1`, the TGI in the assay with COLO 205 colon is above 100 µM; in the assay on IGROV1 ovarian, above 100 µM; in the assay with MOLT-4 leukemia it was above 100 µM; in the assay on NCI-H522 lung, above 100 µM; with RXF 393 renal it was 62.8 µM; in the assay with SF-295 CNS, 14.4 µM. The TGI with SK-MEL-28 melanoma was above 100 µM; in the assay on SNB-75 CNS, 78.4 µM; in the assay on UACC-257 melanoma, above 100 µM; with UACC-62 melanoma, 5.92 µM.

Regarding `OCCO/N=C1\C(c2c(O)[nH]c3ccccc23)=Nc2ccccc21`, the TGI in the assay with COLO 205 colon, with IGROV1 ovarian, in the assay with MOLT-4 leukemia, in the assay on NCI-H522 lung, in the assay with RXF 393 renal and in the assay on SF-295 CNS was above 100 µM throughout. The TGI in the assay on SK-MEL-28 melanoma, in the assay on SNB-75 CNS, in the assay on UACC-257 melanoma and in the assay with UACC-62 melanoma was above 100 µM each time.

Regarding `C=C/C(C)=C\CC1[C@](C)(O)CC[C@H]2C(C)(C)C(=O)CC[C@]12C` (stereo not given in full), the TGI was above 100 µM in the assay with COLO 205 colon; above 100 µM in the assay on IGROV1 ovarian; 79.3 µM in the assay on MOLT-4 leukemia; above 100 µM with NCI-H522 lung; above 100 µM in the assay on RXF 393 renal; above 100 µM with SF-295 CNS. The TGI in the assay with SK-MEL-28 melanoma, with SNB-75 CNS, in the assay on UACC-257 melanoma and in the assay with UACC-62 melanoma was above 100 µM in each case.

With `N#CC1(C#N)NC(c2cccs2)C(C#N)(C#N)NC1c1cccs1` (stereo not given), the TGI in the assay on COLO 205 colon is above 100 µM; with IGROV1 ovarian it was above 100 µM; in the assay on MOLT-4 leukemia, 60.2 µM; in the assay on NCI-H522 lung, 88.4 µM; in the assay with RXF 393 renal, above 100 µM; in the assay with SF-295 CNS, above 100 µM. The TGI in the assay on SK-MEL-28 melanoma was above 100 µM; in the assay with SNB-75 CNS, above 100 µM; with UACC-257 melanoma, above 100 µM; with UACC-62 melanoma it was 57.9 µM.

For `OC1(c2ccccc2)CCN(Cc2c[nH]c3ccccc23)CC1`, the TGI in the assay on COLO 205 colon is 31.7 µM; with IGROV1 ovarian, above 100 µM; in the assay on MOLT-4 leukemia, above 100 µM; in the assay with NCI-H522 lung it was above 100 µM; in the assay on RXF 393 renal, above 100 µM; with SF-295 CNS it was above 100 µM. Also, the TGI with SK-MEL-28 melanoma is 56.9 µM; in the assay on SNB-75 CNS it was above 100 µM; in the assay with UACC-257 melanoma it was 40.4 µM; with UACC-62 melanoma, above 100 µM.

Turning to `CC(NC(=O)C(NC(=O)CNC(=O)OC(C)(C)C)C(C)C)C(=O)Oc1c(Cl)c(Cl)c(Cl)c(Cl)c1Cl` (stereo not given), the TGI in the assay on COLO 205 colon was 43.2 µM; with IGROV1 ovarian, 46.6 µM; in the assay with MOLT-4 leukemia it was above 100 µM; in the assay with NCI-H522 lung it was 45.2 µM; in the assay with RXF 393 renal, 44.6 µM; in the assay on SF-295 CNS it was 34.3 µM. Moreover, the TGI with SK-MEL-28 melanoma amounted to 71.8 µM; in the assay with SNB-75 CNS it was 78.7 µM; in the assay with UACC-257 melanoma, 44.7 µM; in the assay with UACC-62 melanoma it was 34.8 µM.

Consider `O=[N+]([O-])c1ccc2sc(C=Nc3cnccn3)cc2c1`, for which the TGI in the assay on COLO 205 colon was above 100 µM; in the assay on IGROV1 ovarian, above 100 µM; in the assay with MOLT-4 leukemia, 34.3 µM; in the assay on NCI-H522 lung, above 100 µM; in the assay with RXF 393 renal it was 33.5 µM; with SF-295 CNS it was above 100 µM. Further, the TGI in the assay on SK-MEL-28 melanoma is above 100 µM; in the assay with SNB-75 CNS, 63.5 µM; in the assay with UACC-257 melanoma, above 100 µM; in the assay on UACC-62 melanoma, 53.1 µM.
